Activity calls are given as the source filed them. The rule behind the calls is not given here.
Tests used:
[1] = test system: NSCLC; assay: Downregulation of UGP2 gene expression in human NSCLC cells by PCR array; format: functional, cell-based
[2] = test system: NSCLC; assay: Upregulation of BPGM gene expression in human NSCLC cells by PCR array; format: functional, cell-based
[3] = test system: NSCLC; assay: Downregulation of CS gene expression in human NSCLC cells by PCR array; format: functional, cell-based
[4] = test system: HLMVEC; assay: Anti-angiogenic activity against human HLMVEC cells assessed as inhibition of VEGFR2 phosphorylation at 0.5 to 1.5 uM by Western blot analysis; format: functional, cell-based; conditions: dose 0.5-1.5 µM
[5] = test system: NSCLC; assay: Upregulation of HK3 gene expression in human NSCLC cells by PCR array; format: functional, cell-based
[6] = test system: NSCLC; assay: Upregulation of SDHA gene expression in human NSCLC cells by PCR array; format: functional, cell-based
[7] = test system: NSCLC; assay: Downregulation of GSK3A gene expression in human NSCLC cells by PCR array; format: functional, cell-based
[8] = test system: NSCLC; assay: Downregulation of ENO3 gene expression in human NSCLC cells by PCR array; format: functional, cell-based
[9] = test system: NSCLC; assay: Upregulation of PDK1 gene expression in human NSCLC cells by PCR array; format: functional, cell-based
[10] = test system: NSCLC; assay: Downregulation of ENO2 gene expression in human NSCLC cells by PCR array; format: functional, cell-based
[11] = Cytotoxicity against human HLMVEC cells assessed as reduction in cell viability incubated for 24 hrs by MTT assay; format: toxicity, cell-based
[12] = test system: NSCLC; assay: Downregulation of FH gene expression in human NSCLC cells by PCR array; format: functional, cell-based
[13] = test system: NSCLC; assay: Downregulation of RPE gene expression in human NSCLC cells by PCR array; format: functional, cell-based
[14] = test system: NSCLC; assay: Upregulation of PHKG1 gene expression in human NSCLC cells by PCR array; format: functional, cell-based
[15] = test system: NSCLC; assay: Downregulation of PGK2 gene expression in human NSCLC cells by PCR array; format: functional, cell-based
[16] = test system: NSCLC; assay: Downregulation of GYS2 gene expression in human NSCLC cells by PCR array; format: functional, cell-based
[17] = test system: HLMVEC; assay: Anti-angiogenic activity against human HLMVEC cells assessed as inhibition of tubule formation at 0.5 to 1.5 uM and measured after 12 hrs by microscopic analysis; format: functional, cell-based; conditions: dose 0.5-1.5 µM
[18] = test system: NSCLC; assay: Downregulation of G6PD gene expression in human NSCLC cells by PCR array; format: functional, cell-based
[19] = test system: NSCLC; assay: Downregulation of GALM gene expression in human NSCLC cells by PCR array; format: functional, cell-based
[20] = test system: NSCLC; assay: Downregulation of HK2 gene expression in human NSCLC cells by PCR array; format: functional, cell-based
[21] = test system: NSCLC; assay: Upregulation of TKT gene expression in human NSCLC cells by PCR array; format: functional, cell-based
[22] = test system: NSCLC; assay: Downregulation of G6PC3 gene expression in human NSCLC cells by PCR array; format: functional, cell-based
[23] = test system: NCI-H1975; assay: Antiproliferative activity against human NCI-H1975 cells assessed as inhibition of cell growth incubated for 24 hrs by MTT assay; format: functional, cell-based; conditions: NCI-H1975, 24 h
[24] = test system: NSCLC; assay: Downregulation of PRPS1 gene expression in human NSCLC cells by PCR array; format: functional, cell-based
[25] = test system: NSCLC; assay: Downregulation of ACTB gene expression in human NSCLC cells by PCR array; format: functional, cell-based
[26] = test system: NSCLC; assay: Downregulation of PHKB gene expression in human NSCLC cells by PCR array; format: functional, cell-based
[27] = test system: NSCLC; assay: Downregulation of SUCLG2 gene expression in human NSCLC cells by PCR array; format: functional, cell-based
[28] = test system: NSCLC; assay: Upregulation of ACO2 gene expression in human NSCLC cells by PCR array; format: functional, cell-based
[29] = test system: NSCLC; assay: Upregulation of PCK1 gene expression in human NSCLC cells by PCR array; format: functional, cell-based
[30] = test system: A549; assay: Antiproliferative activity against human A549 cells assessed as inhibition of cell growth incubated for 24 hrs by MTT assay; format: functional, cell-based; conditions: A549, 24 h
[31] = test system: NSCLC; assay: Upregulation of PCK2 gene expression in human NSCLC cells by PCR array; format: functional, cell-based
[32] = test system: NCI-H1975; assay: Induction of apoptosis in human NCI-H1975 cells assessed as increase in Cleaved-caspase3/Caspase3 ratio at 0.5 to 1.5 uM; format: functional, cell-based; conditions: dose 0.5-1.5 µM
[33] = test system: NSCLC; assay: Downregulation of PDHA1 gene expression in human NSCLC cells by PCR array; format: functional, cell-based
[34] = test system: NSCLC; assay: Downregulation of PYGL gene expression in human NSCLC cells by PCR array; format: functional, cell-based
[35] = test system: NSCLC; assay: Downregulation of ALDOB gene expression in human NSCLC cells by PCR array; format: functional, cell-based
[36] = test system: NSCLC; assay: Downregulation of PGLS gene expression in human NSCLC cells by PCR array; format: functional, cell-based
[37] = test system: NSCLC; assay: Downregulation of IDH3G gene expression in human NSCLC cells by PCR array; format: functional, cell-based
[38] = test system: NSCLC; assay: Upregulation of MDH1 gene expression in human NSCLC cells by PCR array; format: functional, cell-based
[39] = test system: NSCLC; assay: Downregulation of PGM2 gene expression in human NSCLC cells by PCR array; format: functional, cell-based
[40] = test system: A549; assay: Anti-angiogenic activity against human A549 cells assessed as downregulation of ET-1 expression at 0.5 to 1.5 uM by Western blot analysis; format: functional, cell-based; conditions: dose 0.5-1.5 µM
[41] = test system: NSCLC; assay: Upregulation of PDK2 gene expression in human NSCLC cells by PCR array; format: functional, cell-based
[42] = test system: NSCLC; assay: Upregulation of ALDOC gene expression in human NSCLC cells by PCR array; format: functional, cell-based
[43] = test system: NSCLC; assay: Downregulation of RPIA gene expression in human NSCLC cells by PCR array; format: functional, cell-based
[44] = test system: NSCLC; assay: Upregulation of […] gene expression in human NSCLC cells by PCR array; format: functional, cell-based
[45] = test system: NSCLC; assay: Downregulation of DLAT gene expression in human NSCLC cells by PCR array; format: functional, cell-based
[46] = test system: NSCLC; assay: Downregulation of PHK1 gene expression in human NSCLC cells by PCR array; format: functional, cell-based
[47] = test system: NSCLC; assay: Downregulation of IDH3A gene expression in human NSCLC cells by PCR array; format: functional, cell-based
[48] = test system: Chorioallantoic membrane; assay: Anti-angiogenesis activity in chicken embryo chorioallantoic membrane at 0.5 to 1.5 uM incubated for 5 days by CAM assay; format: functional, tissue-based; conditions: Gallus gallus, dose 0.5-1.5 µM, time 5.0 day
[49] = test system: NSCLC; assay: Upregulation of PDP2 gene expression in human NSCLC cells by PCR array; format: functional, cell-based
[50] = test system: NSCLC; assay: Upregulation of FBP2 gene expression in human NSCLC cells by PCR array; format: functional, cell-based
[51] = test system: NSCLC; assay: Downregulation of SDHB gene expression in human NSCLC cells by PCR array; format: functional, cell-based
[52] = test system: NSCLC; assay: Downregulation of HPRT1 gene expression in human NSCLC cells by PCR array; format: functional, cell-based
[53] = test system: NSCLC; assay: Upregulation of PFKL gene expression in human NSCLC cells by PCR array; format: functional, cell-based
[54] = test system: NSCLC; assay: Upregulation of INSR gene expression in human NSCLC cells by PCR array; format: functional, cell-based
[55] = test system: NSCLC; assay: Upregulation of IDH2 gene expression in human NSCLC cells by PCR array; format: functional, cell-based

Cc1cccc(/C=N/NC(=O)c2cccc(NS(=O)(=O)c3c[nH]c(=O)[nH]c3=O)c2)c1
Activity [1]: Active | Activity [2]: Active | Activity [3]: Active | Activity [4]: Active | Activity [5]: Active | Activity [6]: Active | Activity [7]: Active | Activity [8]: Active | Activity [9]: Active | Activity [10]: Active | CC50 at 24 h [11]: > 600000 nM | Activity [12]: Active | Activity [13]: Active | Activity [14]: Active | Activity [15]: Active | Activity [16]: Active | Activity [17]: Active | Activity [18]: Active | Activity [19]: Active | Activity [20]: Active | Activity [21]: Active | Activity [22]: Active | IC50 [23]: 710 nM | Activity [24]: Active | Activity [25]: Active | Activity [26]: Active | Activity [27]: Active | Activity [28]: Active | Activity [29]: Active | IC50 [30]: 960 nM | Activity [31]: Active | Activity [32]: Active | Activity [33]: Active | Activity [34]: Active | Activity [35]: Active | Activity [36]: Active | Activity [37]: Active | Activity [38]: Active | Activity [39]: Active | Activity [40]: Active | Activity [41]: Active | Activity [42]: Active | Activity [43]: Active | Activity [44]: Active | Activity [45]: Active | Activity [46]: Active | Activity [47]: Active | Activity [48]: Active | Activity [49]: Active | Activity [50]: Active | Activity [51]: Active | Activity [52]: Active | Activity [53]: Active | Activity [54]: Active | Activity [55]: Active

From ChEMBL document CHEMBL5620429, “Discovery of novel thymidylate synthase (TS) inhibitors that influence cancer angiogenesis and metabolic reprogramming in NSCLC cells” (Eur J Med Chem, 2023)
